The numbers were not newly measured in patent US20230029485A1 (priority 2021, published 2023), which cites them from elsewhere.

Common to all, as to settings: in vivo
The subject of series [1] is metastatic colorectal cancer.
The subject of series [2] is SARS-CoV-2.
The subject of series [3] is SARS-CoV-2. This is another data set of the same source.

Regarding `O=c1[nH]cc(F)c(=O)[nH]1` [5-fluorouracil], the objective response rate entry in series [1] is “around 20%”.

For `CCN(CCO)CCCC(C)Nc1ccnc2cc(Cl)ccc12` (stereo not shown) [HCQ, hydroxychloroquine], in the series with SARS-CoV-2 [2], the “developed QT prolongation” value is listed as “nine”; the “good clinical outcome and a virological cure” value was 91.7%.

Take `CCC(CC)COC(=O)[C@H](C)N[P@](=O)(OC[C@H]1O[C@@](C#N)(c2ccc3c(N)ncnn23)[C@H](O)[C@@H]1O)Oc1ccccc1` [RDV, Remdesivir]: in the series with SARS-CoV-2 [3], the “adverse events, share of patients” value is 60.3%.
